The values below come from paper PMC9318802, “Optimization of 2-Aminoquinazolin-4-(3H)-one Derivatives as Potent Inhibitors of SARS-CoV-2: Improved Synthesis and Pharmacokinetic Properties” (Pharmaceuticals, 2022).

Molecules are shown by their SMILES. Entries after “also recorded” stand apart in the source; their conditions may differ. Like-named read-outs stand apart in the source and are kept apart here. Some results are limits rather than exact numbers.

Data set [1] can be described thus: In vivo single-dose toxicity in male Sprague Dawley rats. Details: species or system rat. The note with it: for Clinical signs: animals with liquid feces: n = 4, recovered by day 4; for Body weight change: recovered on day 14. As for the experimental part:
After single administration using 55% PEG200 in distilled water as a vehicle, each group of four rats was monitored for 15 days. […] Therefore, the approximate lethal dose of compound 2b in this study was estimated to be more than 500 mg/kg.
Figure 3 Body weight changes in male rats (n = 4) treated with compound 2b in a single-dose toxicity study. ** p < 0.01, compared to the control at the same time point (Dunnett’s test).

A short description of data set [2]: EZ-Cytox cell viability assay, NIH 3T3. The note with it: mouse, Cytotoxicity (CC50) NIH 3T3, EZ-Cytox.
The nature of data set [3]: in vitro. The note with it: Chinese hamster, Cytotoxicity (CC50) CHO-K1, EZ-Cytox, 24 h.
Data set [4] is described as follows: in vitro. To be noted: African green monkey.
Data set [5] can be described thus: EZ-Cytox cell viability assay, HFL-1. To be noted: human, Cytotoxicity (CC50) HFL-1, EZ-Cytox.
Data set [6] can be described thus: In vivo oral pharmacokinetics in Sprague Dawley rats. To be noted: rat, blood, male Sprague Dawley rats, 10 mg/kg; for Cmax / Tmax / half-life: n = 3; for AUC(0-t): n = 3, read-out: AUC24h. As to the method: Compounds 2a–c were selected for in vivo pharmacokinetic studies based on their ClogP and selectivity index (SI) values. Each compound was administered orally at 10 mg/kg to three Sprague Dawley rats (Figure 2). […] The lipophilic properties and the small size of the fluorine moieties likely enhance the absorption of compound 2b.
Figure 2 Pharmacokinetic evaluation of compounds 1a, 2a, 2b, and 2c. Each compound was orally administrated to male Sprague Dawley rats (n = 3) at 10 mg/kg. TEXT PRINTED IN THE PICTURE: 1a: Tmax (h): 2.50; Cmax (μg/mL): 0.87; T1/2 (h): 5.65; AUC24h (μg·h/mL): 6.62 | 2a: Tmax (h): 4.67; Cmax (μg/mL): 1.85; T1/2 (h): 4.95; AUC24h (μg·h/mL): 24.31 | 2b: Tmax (h): 4.00; Cmax (μg/mL): 5.56; T1/2 (h): 1.96; AUC24h (μg·h/mL): 41.57 | 2c: Tmax (h): 3.33; Cmax (μg/mL): 1.96; T1/2 (h): 6.69; AUC24h (μg·h/mL): 10.77

Data set [7] relates to SARS-CoV-2 spike pseudo-typed lentivirus. The data set can be described thus: microbe, parasite or virus in culture. Type of data set: cell-based. The note with it: Severe acute respiratory syndrome coronavirus 2, NCI-H1299, 48 h; read-out: IC50 (SARS-CoV-2 spike pseudo-typed virus entry).
A further data set has as its target hERG K+ channel (Homo sapiens, UniProt Q12809). The data set can be described thus: cell-based.
In another data set the test system is SARS-CoV-2. The data set can be described thus: Anti-SARS-CoV-2 immunofluorescence assay in Vero cells. Type of data set: cell-based. To be noted: for IC50: Severe acute respiratory syndrome coronavirus 2, immunofluorescence, at least two independent experiments.
A short description of data set [8]: EZ-Cytox cell viability assay, L929. To be noted: mouse, Cytotoxicity (CC50) L929, EZ-Cytox.
The test system of data set [9] is NIH 3T3, mouse embryonic fibroblast cells. The data set can be described thus: EZ-Cytox cell viability assay, NIH 3T3. To be noted: read-out: Cytotoxicity (CC50) NIH 3T3; EZ-Cytox, 24 h.
A short description of data set [10]: Microsomal stability assay, human liver microsomes. The note with it: percentage of original compound remaining after 30 min incubation, NADPH. In general terms: Liver microsomes are a subcellular fraction often used to study metabolism.
Data set [11] is described as follows: Microsomal stability assay, rat liver microsomes. To be noted: percentage of original compound remaining after 30 min incubation, NADPH.
A short description of data set [12]: Cytotoxicity (CC50) in uninfected Vero cells. The note with it: African green monkey.
Details of data set [13]: method as in PMID 34914868, PMID 34914869. To be noted: cited from earlier work.
For data set [14] the following is noted: rats, oral, 10 mg/kg; ref previously reported; cited from earlier work.
Another data set concerns Vero cells. The note with it: Vero cell assay, previously reported; cited from earlier work.
Where [15] appears, read: CC50/IC50 for inhibiting SARS-CoV-2 infection, Vero cells.

Sequence of hERG K+ channel (Q12809 whole entry): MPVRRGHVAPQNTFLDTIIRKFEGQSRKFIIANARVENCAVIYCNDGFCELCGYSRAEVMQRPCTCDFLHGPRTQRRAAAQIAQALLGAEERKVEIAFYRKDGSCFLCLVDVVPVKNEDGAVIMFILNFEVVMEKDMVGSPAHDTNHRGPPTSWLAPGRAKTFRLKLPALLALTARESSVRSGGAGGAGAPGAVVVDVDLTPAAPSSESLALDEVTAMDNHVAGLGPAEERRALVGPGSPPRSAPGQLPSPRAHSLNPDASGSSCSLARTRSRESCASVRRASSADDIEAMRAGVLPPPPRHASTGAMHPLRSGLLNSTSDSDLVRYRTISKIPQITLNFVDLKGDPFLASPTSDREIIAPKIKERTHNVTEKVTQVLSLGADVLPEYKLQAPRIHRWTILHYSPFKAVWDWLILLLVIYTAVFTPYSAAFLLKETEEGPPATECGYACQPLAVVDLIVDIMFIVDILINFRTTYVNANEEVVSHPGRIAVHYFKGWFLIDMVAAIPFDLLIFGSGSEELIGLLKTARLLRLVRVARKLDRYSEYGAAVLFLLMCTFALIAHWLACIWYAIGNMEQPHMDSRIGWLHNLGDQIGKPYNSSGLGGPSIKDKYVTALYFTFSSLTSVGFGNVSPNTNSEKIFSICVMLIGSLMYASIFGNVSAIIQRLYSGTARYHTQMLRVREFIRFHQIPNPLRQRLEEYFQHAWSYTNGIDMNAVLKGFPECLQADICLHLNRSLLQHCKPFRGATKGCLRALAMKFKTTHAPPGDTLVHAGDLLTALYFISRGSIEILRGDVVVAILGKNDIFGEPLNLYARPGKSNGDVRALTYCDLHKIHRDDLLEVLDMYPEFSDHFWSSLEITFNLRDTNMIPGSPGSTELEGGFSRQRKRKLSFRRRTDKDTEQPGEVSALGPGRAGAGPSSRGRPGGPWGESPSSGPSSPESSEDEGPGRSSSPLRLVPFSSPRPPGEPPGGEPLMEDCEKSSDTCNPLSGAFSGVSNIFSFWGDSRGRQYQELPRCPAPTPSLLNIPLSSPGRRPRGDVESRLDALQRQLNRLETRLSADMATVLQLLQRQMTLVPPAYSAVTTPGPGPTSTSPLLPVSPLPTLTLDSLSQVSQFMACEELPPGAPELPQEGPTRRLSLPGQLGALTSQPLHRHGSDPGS

In general, Cmax refers to the peak of the concentration-time curve. In general, Tmax refers to the time from dosing to the highest level. Usually half-life stands for the time needed for the level to fall by half in the phase considered. As a reminder, the IC50 is the concentration at which inhibition is half-maximal. Consider `CC(=O)N(c1cc(F)cc(F)c1)c1nc2cc(Cl)ccc2c(=O)[nH]1` [Compound 2b, N-(7-Chloro-4-oxo-3,4-dihydroquinazolin-2-yl)-N-(3,5-difluorophenyl)acetamide], for which the figures for the “Clinical signs: animals with liquid feces” value in [1] (250 mg/kg group) and in data set [1] (500 mg/kg group) were “one animal” and “two animals”, respectively. In addition, the Body weight change entry in data set [1] (250 mg/kg, day 4, Dunnett's test) is “statistically significant reduction”; in data set [1] (500 mg/kg, days 4 and 8, Dunnett's test), “statistically significant reduction”. For the same compound, the “Gross observations of the organs” value in data set [1] (250 and 500 mg/kg) is “did not reveal changes in any of the organs examined”. The Mortality entry in data set [1] (single oral dose 250 and 500 mg/kg, monitored 15 days) is “no deaths; also recorded: no mortality; also recorded: no animals died”. In [1] (single oral dose, male rats), the Approximate lethal dose entry is reported as “greater than 500 mg/kg”. The CC50 at 24 h in [2] is 22.7 µM; in “in vitro [4]”, greater than 25 µM; in [5] it was 12.6 µM; in data set [8], 17.9 µM. The same compound gave a CC50 in “in vitro [3]” of 14.6 µM. This compound had a Cmax in data set [6] of 5560 ng/mL. The time to peak (Tmax) in data set [6] was found to be 4 h. In data set [6], this compound gave a half-life of 1.96 h. Further, in data set [6], the AUC(0-t) is 41600 ng·h/mL. In addition, the IC50 was 0.99 µM in data set [7], 30 µM on hERG K+ channel and 0.29 µM in the data set with SARS-CoV-2 (Vero cells).

In general, melting point refers to the temperature, or range, at which the solid turns liquid. Consider `O=C(C(O)OCc1ccccc1)N(c1cc(Cl)cc(Cl)c1)c1nc2cc(Cl)ccc2c(=O)[nH]1` (stereo not shown), for which the melting point lay within 282 to 284 °C.

Compound `O=c1[nH]c(Nc2cc(Cl)cc(Cl)c2)nc2cccc(O)c12` [Compound 5c, 2-((3,5-Dichlorophenyl)amino)-5-hydroxyquinazolin-4(3H)-one] returned a melting point greater than 300 °C. This compound also had a CC50 at 24 h in “in vitro [4]” greater than 25 µM. The “SI (selectivity index)” value in the data set on SARS-CoV-2 (setting [15]) is greater than 168. Also, in the data set with SARS-CoV-2 (Vero cells), the IC50 came to 0.15 µM.

Regarding `CN(c1cc(Cl)cc(Cl)c1)c1nc2cc(Cl)ccc2c(=O)[nH]1` [Compound 6c, 7-Chloro-2-((3,5-dichlorophenyl)(methyl)amino)quinazolin-4(3H)-one], the melting point was in the range of 287 to 289 °C. In the data set “in vitro [4]”, this compound came in with a CC50 at 24 h greater than 25 µM. Besides, in the data set on SARS-CoV-2 (Vero cells), the IC50 amounted to 5.66 µM.

In turn, `CC(=O)N(c1cc(Cl)cc(Cl)c1)c1nc2cc(Cl)ccc2c(=O)[nH]1` [Compound 2a, N-(7-Dichloro-4-oxo-3,4-dihydroquinazolin-2-yl)-N-(3,5-dichlorophenyl)acetamide] yielded a melting point of 236 to 238 °C. In addition, the CC50 in [9] turned out to be 7.6 µM. The compound further gave a CC50 at 24 h in data set [2] of less than 10 µM. The CC50 at 24 h in the data set “in vitro [4]” worked out at 9.39 µM. In addition, in data set [6], the Cmax worked out at 1850 ng/mL, the time of peak concentration (Tmax) is 4.67 h, the half-life was 4.95 h and the AUC(0-t) turned out to be 24300 ng·h/mL. For the same compound, the half-inhibitory concentration (IC50) in data set [7] came to 0.54 µM. Half-maximal inhibition against hERG K+ channel (IC50) was put at 15.2 µM. Moreover, in the data set with SARS-CoV-2, the “SI (selectivity index)” value is 26. This compound also registered an IC50 in the data set with SARS-CoV-2 (Vero cells) of 0.33 µM.

Consider `O=C1CC2(CCCC2)CC(=O)N1CCCCN1CCN(c2ncccn2)CC1` [buspirone, reference compound], for which, in data set [10], the “Microsomal Stability (%) Human” value is on record as less than 10%. The “Microsomal Stability (%) Rat” value in [11] is less than 5%.

Take `CCC(CC)COC(=O)[C@H](C)N[P@](=O)(OC[C@H]1O[C@@](C#N)(c2ccc3c(N)ncnn23)[C@H](O)[C@@H]1O)Oc1ccccc1` [Remdesivir, reference compound]: the CC50 at 24 h in [12] was greater than 50 µM. Moreover, the “SI (selectivity index)” value in the data set on SARS-CoV-2 is greater than 14. For the same compound, the 50% inhibitory concentration (IC50) in the data set on SARS-CoV-2 (Vero cells) is 3.47 µM.

`Cc1ccc(S(=O)(=O)N(c2cc(Cl)cc(Cl)c2)c2nc3cc(Cl)ccc3c(=O)[nH]2)cc1` [Compound 6d, N-(7-Chloro-4-oxo-3,4-dihydroquinazolin-2-yl)-N-(3,5-dichlorophenyl)-4-methylben-zenesulfonamide] gave a melting point of 163 to 165 °C. The compound also had a CC50 at 24 h in the data set “in vitro [4]” greater than 25 µM. Moreover, the “SI (selectivity index)” value in the data set with SARS-CoV-2 (setting [15]) was greater than 44. The compound further registered a half-maximal inhibitory concentration (IC50) with SARS-CoV-2 (Vero cells) of 0.57 µM.

`O=c1[nH]c(Nc2cc(F)cc(F)c2)nc2cc(Cl)ccc12` [Compound 1b, 7-Chloro-2-((3,5-difluorophenyl)amino)quinazolin-4(3H)-one] showed a CC50 at 24 h in the data set “in vitro [4]” of 18 µM. The “SI (selectivity index)” value with SARS-CoV-2 (setting [15]) is on record as 74. This compound came in with an IC50 with SARS-CoV-2 (Vero cells) of 0.24 µM.

Consider `CC(=O)N(c1cc(Cl)cc(Cl)c1)c1nc2cccc(O)c2c(=O)[nH]1` [Compound 2c, N-(3,5-Dichlorophenyl)-N-(5-hydroxy-4-oxo-3,4-dihydroquinazolin-2-yl)acetamide], for which the CC50 at 24 h was 59.9 µM in [2], greater than 25 µM in “in vitro [4]”, 13.7 µM in [5] and 42.7 µM in data set [8]. Further, the “Microsomal Stability (%) Human” value in data set [10] is given as 10%. Moreover, the CC50 in the data set “in vitro [3]” came to 17.1 µM. Moreover, the peak concentration (Cmax) in data set [6] came out at 1960 ng/mL. Further, the time of peak concentration (Tmax) in [6] was 3.33 h. The compound also gave a half-life in data set [6] of 6.69 h. Also, the AUC(0-t) in data set [6] was found to be 10800 ng·h/mL. Besides, the “Microsomal Stability (%) Rat” value in data set [11] was 57%. The 50% inhibitory concentration (IC50) against hERG K+ channel is greater than 50 µM; in the data set on SARS-CoV-2 (Vero cells) it was 0.11 µM.

`COC(=O)N(c1cc(Cl)cc(Cl)c1)c1nc2cc(Cl)ccc2c(=O)[nH]1` [Compound 6b, Methyl (7-Chloro-4-oxo-3,4-dihydroquinazolin-2-yl)(3,5-dichlorophenyl)carbamate] came in with a melting point of 218 to 220 °C. This compound came in with a CC50 at 24 h in data set [12] (uninfected Vero cells) greater than 25 µM. The compound also returned a concentration for half-maximal inhibition (IC50) with SARS-CoV-2 (Vero cells) of 7.05 µM.

Compound `CCC(=O)N(c1cc(Cl)cc(Cl)c1)c1nc2cc(Cl)ccc2c(=O)[nH]1` [Compound 6a, N-(7-Chloro-4-oxo-3,4-dihydroquinazolin-2-yl)-N-(3,5-dichlorophenyl)propionamide] displayed a melting point of 223 to 225 °C. For the same compound, the CC50 at 24 h in the data set “in vitro [4]” was greater than 25 µM. Moreover, in the data set with SARS-CoV-2 (setting [15]), the “SI (selectivity index)” value is reported as greater than 117. This compound registered a 50% inhibitory concentration (IC50) in the data set with SARS-CoV-2 (Vero cells) of 0.21 µM.

For `O=C(CO)N(c1cc(Cl)cc(Cl)c1)c1nc2cc(Cl)ccc2c(=O)[nH]1` [Compound 8, N-(7-Chloro-4-oxo-3,4-dihydroquinazolin-2-yl)-N-(3,5-dichlorophenyl)-2-hydroxy-acetamide], the melting point lay in the range of 263 to 265 °C. In addition, in the data set “in vitro [4]”, the CC50 at 24 h was greater than 25 µM. Moreover, the “SI (selectivity index)” value in the data set on SARS-CoV-2 (setting [15]) is recorded as greater than 10. This compound also showed an IC50 in the data set on SARS-CoV-2 (Vero cells) of 2.57 µM.

With `CC(C)C(=O)OC[C@H]1O[C@@H](n2ccc(NO)nc2=O)[C@H](O)[C@@H]1O` [molnupiravir], in data set [13] (48 out of 709 patients), the “Incidence of hospitalization or death at day 29” value is reported as 6.8%. In addition, the “Reduction in COVID-19-related hospitalization or death” value in [13] (versus placebo) is listed as 30%.

`O=c1[nH]c(Nc2cc(Cl)cc(Cl)c2)nc2cc(Cl)ccc12` [Compound 1a, 7-Chloro-2-((3,5-dichlorophenyl)amino)quinazolin-4(3H)-one]: the CC50 at 24 h in the data set “in vitro [4]” was greater than 25 µM. Further, in [14], the AUC24h is 6620 ng·h/mL and the Cmax is 870 ng/mL. Moreover, it took 0.23 µM to reach half-maximal inhibition in the data set on SARS-CoV-2 (Vero cells) (IC50). Further, the Cytotoxicity entry in the data set with Vero cells was “no cytotoxicity”.
